Measurements taken from paper PMC2587488 (Journal of pineal research, 2008).
Where two headings read alike, the source gives them in different places. Each block holds one compound with its values, some of them ahead of it.

Key:
[1] = system: rat microsomal cytochrome P450s; assay: in vitro; conditions: microsomes, pH 7.4, inhibition of melatonin O-demethylation (NAS formation)
[2] = system: mitochondrial cytochrome P450s; assay: in vitro; conditions: rat, pH 7.4, inhibition of melatonin O-demethylation (NAS formation)
human liver microsomes = conditions: cited from earlier work
NADH oxidase = conditions: isolated rat liver mitochondria; cited from earlier work
CYP1A2 = conditions: liver slices and microsomes of treated rats; cited from earlier work
[3] = system: rat liver postmitochondrial supernatant; conditions: cited from earlier work
[4] = system: rat microsomal cytochrome P450s; conditions: microsomes
[5] = system: mitochondrial cytochrome P450s; conditions: mitochondria
[6] = 6-HMel formation from melatonin

SMILES: CC(=O)N1CCN(c2ccc(OCC3COC(Cn4ccnc4)(c4ccc(Cl)cc4Cl)O3)cc2)CC1 (stereo not shown) [Ketoconazole, ketoconazole]
- inhibition of melatonin metabolism (human liver microsomes): only weak inhibitors
- inhibition of NADH oxidase (NADH oxidase): dose-dependent inhibition
- inhibition at 60 min, 5 μM [1]: 52%
- inhibition at 60 min, 5 μM [2]: 49%

SMILES: O=c1cc(-c2ccccc2)oc2c1ccc1ccccc12 [α-naphthoflavone]
- increase in melatonin conversion to 6-sulphatoxymelatonin (CYP1A2): 3 fold

SMILES: Cc1nc2c([nH]1)c(=O)n(C)c(=O)n2Cc1ccco1 [Furafylline, furafylline]
- inhibition of the conversion of melatonin to 6-sulphatoxymelatonin [3]: inhibited markedly
- inhibition at 60 min, 20 μM [1]: 27%
- inhibition at 60 min, 20 μM [2]: 63%

SMILES: COc1ccc2[nH]cc(CCNC(C)=O)c2c1 [melatonin, N-acetyl-5-methoxytryptamine]
- Km1 (high affinity component) [4, 6]: 48.33 ± 9.17 µM
- Km2 (low affinity component) [4, 6]: 496.8 ± 53.78 µM
- Km1 (high affinity component) ([4]; NAS formation from melatonin): 25.86 ± 1.39 µM
- Km2 (low affinity component) ([4]; NAS formation from melatonin): 953.3 ± 85.95 µM
- Km2 (low affinity component) [5, 6]: 406.6 ± 19.84 µM
- Km1 (high affinity component) ([5]; NAS formation from melatonin): 13.96 ± 2.37 µM

SMILES: C=C[C@H]1C[N@@]2CC[C@H]1C[C@@H]2[C@@H](O)c1ccnc2ccc(OC)cc12 [Quinidine, quinidine]
- inhibition of melatonin metabolism (human liver microsomes): only weak inhibitors
- inhibition at 60 min, 5 μM [1]: 38%
- inhibition at 60 min, 5 μM [2]: 33%

Now from value to compound:

- inhibition at 60 min, 100 μM [1]: 78%
- inhibition at 60 min, 100 μM [2]: 81%
SMILES: COc1ccc2[nH]c([S+]([O-])Cc3ncc(C)c(OC)c3C)nc2c1 (stereo not shown) [Omeprazole, omeprazole]

- inhibition at 60 min, 50 μM [1]: 38%
- inhibition at 60 min, 50 μM [2]: 74%
SMILES: CCN(CC)C(=S)S [Diethyldihydrocarbamate, diethyldithiocarbamate]

- inhibition at 60 min, 10 μM [2]: 27%
SMILES: Nc1ccc(S(=O)(=O)Nc2ccnn2-c2ccccc2)cc1 [sulfaphenazole]
